The values below come from US20240115521A1, “COMPOUNDS FOR THE TREATMENT OF MYCOBACTERIAL DISEASES” (priority 2022, published 2024).

In series [1] the test system is intracellular BCG. The experiment in a line: microbe, parasite or virus in culture. Type of series: cell-based. To be noted: Mycobacterium tuberculosis variant bovis BCG, read-out: Activity on intracellular BCG (% inhibition).
Series [2] in a line: Human liver microsome assay. Format: in vitro ADME. To be noted: for half-life: human liver microsomes; for Stability in human liver microsomal studies: result in words. (In general: Liver microsomes are vesicles of endoplasmic reticulum, rich in cytochrome P450 enzymes.)
Text: (§1) Because the murine model will be used for initial drug efficacy studies and our goal is to develop drugs for human use, in vitro liver microsomal studies we performed using both mouse and human liver microsomes.
The nature of series [3]: Mouse liver microsome stability. Type of series: in vitro ADME. To be noted: result in words.
Text: as §1
Series [4] concerns intracellular Mtb. The experiment in a line: Inhibition of Mtb growth inside primary human monocytes (3H-Uridine). To be noted: Mycobacterium tuberculosis, Monocyte, all drugs tested at 20 μM. Type of series: cell-based. The protocol: FIGS. 1A & 1B show the structure and anti-mycobacterial activity of select troponoids. Shown are the structures (FIG. 1A) and calculated percent inhibitions of M. tuberculosis (Mtb) growth inside primary human monocytes by 4 selected troponoids (FIG. 1B).
Numerous troponoids have been synthesized and screened on Mtb and MAC and identified three with activities at a concentration of ≤5 μM. […] Briefly, primary monocytes were infected with mycobacteria (Mtb) for 4 hours, then co-cultured with indicated troponoids (2.5-20 μM) for 3 days. Then mammalian cells were lysed with saponin and residual mycobacteria quantified via ^3H-Uridine as previously described (Abate et al. 2015).

The nature of series [5]: Caco2 in vitro permeability assay. To be noted: human, Caco-2. (In general: Caco-2 monolayers are a common model of the intestinal barrier.)
The subject of series [6] is Caco2. The experiment in a line: Caco2 in vitro permeability assay. Particulars: for Caco2 PappA > B: apical to basolateral; for Caco2 PappB > A: basolateral to apical; for GI absorption by Caco-2 in vitro testing: result in words.

Turning to `CCCCSc1cccc(O)c(=O)c1O` [#693], the inhibition at 20 µM in series [1] came out at 89.2%.
With `CCCCSc1ccc(SCCCC)c(O)c(=O)c1O` [#694], in series [2], the half-life came out at 9.8 min and the “Stability in human liver microsomal studies” value is “stable”. Further, the “Stability in mice liver microsomal studies” value in series [3] is given as “stable”. The same compound returned an inhibition at 20 µM in series [4] of 86.5%. In series [1], the inhibition at 20 µM is 91.8%. In addition, the efflux ratio in series [5] was 19. Also, in series [6], the “Caco2 PappA > B” value amounted to 5.83E−06 sec*cm^2, the “Caco2 PappB > A” value worked out at 1.11E−04 sec*cm^2 and the “GI absorption by Caco-2 in vitro testing” value is “good GI absorption”.
With `Cc1ccc(S(=O)(=O)c2cccc(O)c(=O)c2O)cc1` [#697], the inhibition at 20 µM in series [1] came to 0%.
For the compound `CCCCCCS(=O)(=O)c1cccc(O)c(=O)c1O` [#699], in series [1], the inhibition at 20 µM amounted to 0%.
As for `O=c1c(O)cccc(S)c1O` [#701], the inhibition at 20 µM in series [1] was 38.8%.
With `Cc1cc(O)c(=O)c(O)cc1C(=O)N1CCSC1` [#712], in series [1], the inhibition at 20 µM worked out at 32.1%.
The same measure, in the same setting: under `COc1ccc(-c2ccccc(N)c2=O)cc1` [#762] stands 10.8%; under `CCn1cc(C(=O)O)c(=O)c2cc(F)c(N3CCN(c4cccccc4=O)CC3)cc21` [#764], 14.5%.
Take `O=c1cccccc1N1CCOCC1` [#765]: the inhibition at 20 µM in series [1] was 24.3%.
On the same count and under the same terms, under `O=c1cccccc1N1CCCC1` [#766] stands 14%; under `CCS(=O)(=O)N1CCN(C(=O)c2cc(O)c(=O)c(O)cc2C)CC1` [#802], 0%; under `Cc1ccc(Sc2cccc(O)c(=O)c2O)cc1` [#838], 29.3%.
Consider `CCCCCCSc1cccc(O)c(=O)c1O` [#840], for which, in series [2], the half-life was over 30 min and the “Stability in human liver microsomal studies” value was “stable”. The “Stability in mice liver microsomal studies” value in series [3] is “stable”. Further, the inhibition at 20 µM in series [4] stood at 89.4%. Also, in series [1], the inhibition at 20 µM is 74.7%. Also, in series [5], the efflux ratio was 14.6. Also, in series [6], the “Caco2 PappA > B” value turned out to be 1.45E−05 sec*cm^2, the “Caco2 PappB > A” value was 2.11E−04 sec*cm^2 and the “GI absorption by Caco-2 in vitro testing” value is listed as “good GI absorption”.
For `CCCCCCSc1ccc(SCCCCCC)c(O)c(=O)c1O` [#841], in series [2], the half-life stood at 7 min and the “Stability in human liver microsomal studies” value is listed as “stable”. In addition, the “Stability in mice liver microsomal studies” value in series [3] was “stable”. Further, the inhibition at 20 µM in series [4] worked out at 91.5%. Besides, the inhibition at 20 µM in series [1] was found to be 83.5%. The efflux ratio in series [5] was found to be 1.7. Also, in series [6], the “Caco2 PappA > B” value is on record as 3.08E−06 sec*cm^2, the “Caco2 PappB > A” value was 5.18E−06 sec*cm^2 and the “GI absorption by Caco-2 in vitro testing” value was “good GI absorption”.
Turning to `COc1cc(-c2ccccc(S)c2=O)cc(OC)c1OC` [#842], the inhibition at 20 µM in series [1] was determined as 25%.
The same measure, in the same setting: to `COc1cc(-c2ccccc(SSc3ccccc(-c4cc(OC)c(OC)c(OC)c4)c3=O)c2=O)cc(OC)c1OC` [#843] belongs 26.5%; to `O=c1c(S)ccccc1-c1ccccc1` [#844], 19.1%; to `O=C1Nc2ccccc2CCC1S` (stereo not shown) [#845], 9%.
Regarding `O=C1Nc2ccccc2CCC1SC1CCc2ccccc2NC1=O` (stereo not shown) [#846], the inhibition at 20 µM in series [1] is 0%.
Turning to `Cc1ccc(C(=O)Oc2cc(C(C)C)cccc2=O)cc1` [#847], the inhibition at 20 µM in series [1] is 28.8%.
The same measure, in the same setting: to `O=C(O)COc1cc(O)c2c(=O)cc(-c3ccccc3)oc2c1` [#859] belongs 11.3%; to `COc1ccc(-c2cc(=O)c3c(O)cc(O)cc3o2)cc1` [#861], 0%.
The compound `CC(C)c1nc(CN(C)C(=O)N[C@H](C(=O)N[C@@H](Cc2ccccc2)C[C@H](O)[C@H](Cc2ccccc2)NC(=O)OCc2cncs2)C(C)C)cs1` [Ritonavir, reference compound] registered a half-life in series [2] of under 5 min.
On to `CC(=O)CC(c1ccccc1)c1c(O)c2ccccc2oc1=O` (stereo not shown) [Warfarin, reference compound], for which, in series [6], the “Caco2 PappA > B” value is recorded as 9.37E−05 sec*cm^2 and the “Caco2 PappB > A” value is 2.70E−04 sec*cm^2.

A word on the inhibition: it is the share of the control response that was lost under treatment. Usually half-life stands for the time in which the quantity being followed falls by half. Low readings indicate fast loss, high ones slow loss. As usually defined, the efflux ratio is a quotient of directional permeabilities that is used to spot active efflux.
